# Patent US20100035311A1, “METHOD AND COMPOSITION FOR ENZYME STORAGE” (priority 2006, published 2010)
# Read-outs that look alike come from different tables or passages of the source.
# Legend:
# [1] = test system: Medicago truncatula hydroperoxide lyase CYP74C3 (HPLF), recombinant, wild type, N-terminal histidine-tagged; conditions: for Km / kcat: pH 6.5, 25° C.
# [2] = test system: CYP74C3; conditions: cited from earlier work
# [3] = biological target: T1, CYP74A1 (Arabidopsis thaliana, UniProt Q96242)
# T1 sequence (Q96242 with tags, fused parts or gaps): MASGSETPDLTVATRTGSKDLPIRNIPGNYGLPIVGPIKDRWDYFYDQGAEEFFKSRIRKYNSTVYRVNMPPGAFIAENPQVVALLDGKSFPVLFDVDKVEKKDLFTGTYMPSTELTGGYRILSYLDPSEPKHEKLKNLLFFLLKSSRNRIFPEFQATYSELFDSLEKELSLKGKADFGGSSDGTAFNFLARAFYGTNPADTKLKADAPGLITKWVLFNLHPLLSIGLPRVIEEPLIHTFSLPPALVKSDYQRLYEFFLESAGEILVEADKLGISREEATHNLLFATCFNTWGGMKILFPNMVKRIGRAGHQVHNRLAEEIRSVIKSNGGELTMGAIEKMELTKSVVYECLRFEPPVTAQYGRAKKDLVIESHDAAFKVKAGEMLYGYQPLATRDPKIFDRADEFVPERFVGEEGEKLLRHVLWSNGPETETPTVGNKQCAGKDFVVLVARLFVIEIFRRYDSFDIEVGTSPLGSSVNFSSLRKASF
# [4] = test system: CYP74C3; format: biochemical, Medicago truncatula
# Description: Protein content was estimated using the Bradford or bicinchoninic acid (BCA) assay (Pierce, Perbio Science, Cramlington, Northumberland, U.K.) according to the manufacturer's instructions. Bovine serum albumin was used as a standard. […] Substrate specificity was determined by comparing kcat/Km.
# [5] = test system: CYP74C3
# Description: (a) UV/Visible spectra of ligand-bound forms of oxidised native CYP74C3 (2 μM, ? ); KCN (100 mM, ——); imidazole (50 mM, ---------); DMPhP (250 mM, —[…] […]—). The spectrum of dithionite (50 mM) reduced CYP74C3 (2 μM) before ([…]) and after (—[…]—) reaction with CO (˜1 mM) are also shown. […] (c) Stopped-flow diode array spectral changes over a period of 200 s for cyanide (100 mM) binding to native oxidised CYP74C3 (2 μM).
# Spectra and steady-state kinetic analyses were performed using a dual beam scanning Shimadzu UV/Visible spectrophotometer (Model UV-1601, Shimadzu, Milton Keynes, U.K.). […] Stopped flow-UV/Visible data were analysed with the KineticAsyst 3.0 software package (Hi-Tech Scientific). Ligand-binding studies were carried out with both the native oxidised and the dithionite ion reduced forms of CYP74C3.
# [6] = test system: AOS; conditions: ref [23′]; cited from earlier work
# [7] = +Detergent (purified in detergent-buffer)
# [8] = Reactivated with 5 mM Emulphogene
# [9] = detergent-buffer vs detergent-free
# [10] = monomer-micelle complex vs detergent-free monomer
structure (smiles),measurement,setting,value
"CC/C=C\C[C@@H](/C=C/C=C\CCCCCCCC(=O)O)OO [13α-HPOT, 13-S-hydroperoxy-9Z,11E,15Z-octadecatrienoic acid]","Substrate specificity (% 13α-HPOT), from kcat/Km",[1]; [7],100%
same,kcat/Km,[1]; [7],1.558e+08 M⁻¹ s⁻¹
same,Km,[1]; [7],3.3 µM
same,kcat,[1]; [7],514 ± 11 s⁻¹
same,"Substrate specificity (% 13α-HPOT), from kcat/Km",[1]; Detergent-free,100%
same,kcat/Km,[1]; Detergent-free,3.2e+06 M⁻¹ s⁻¹
same,Km,[1]; Detergent-free,20.9 ± 1.7 µM
same,kcat,[1]; Detergent-free,68 ± 5 s⁻¹
same,"Substrate specificity (% 13α-HPOT), from kcat/Km",[1]; [8],100%
same,kcat/Km,[1]; [8],1.493e+08 M⁻¹ s⁻¹
same,Km,[1]; [8],4.4 ± 0.6 µM
same,"Km / affinity, fold change on detergent removal (Km higher)",[1]; [9],6 fold
same,"kcat, fold difference (detergent-buffer higher than detergent-free)",[1]; [9],approximately 8 fold
same,catalytic efficiency (kcat/Km) of detergent-free enzyme as % of enzyme purified without detergent removal,[1]; detergent-free vs detergent-buffer,2%
same,"CYP74C3, fold faster than CYP74A1 (kcat/Km)","[1]; in detergent micelles, CYP74C3 vs CYP74A1",2.6 fold
same,fold increase in kcat/Km upon micelle binding,[1]; micelle-bound vs detergent-free,~50 fold
same,"Km of monomer-micelle complex, fold lower than detergent-free monomer",[1]; [10],5-6 fold
same,"kcat of monomer-micelle complex, fold higher than detergent-free monomer",[1]; [10],8-10 fold
same,kcat/Km,[1]; with detergent,up to 1.6×10^8 M^−1. s^−1
same,fold increase in kcat/Km upon micelle binding,[2],~50 fold
same,fold increase in kcat/Km after reactivation with detergent micelles,[3],~50 fold
"c1c[nH]cn1 [Imidazole, imidazole]",activity of CYP74C3 after elution from IMAC with the ligand,[4],virtually inactive enzyme
same,binding of ligand to CYP74C3,[5],shown to bind
same,k1 of biphasic ligand binding,[5]; pH 6.5,2.5±0.1×10^−2 s^−1
same,k2 of biphasic ligand binding,[5]; pH 6.5,0.33±0.03×10^−2 s^−1
same,inhibition of AOS,[6],potent inhibitor
